The values below are quoted from earlier work in patent US12409239B2, “Particles for use in hyperpolarization” (BEACON MRI LTD, priority 2021, dated 2025).

The conditions of this data set: background statement.

Regarding `CC(=O)C(=O)O` [pyruvate/pyruvic acid, pyruvic acid], the T1 entry is given as “about a minute”.
